The structures appear in SMILES notation.

For the assay, the target named is IMPDH human type II (Homo sapiens, UniProt P12268). The assay can be described thus: IMPDH activity inhibition assay (spectrophotometric, NADH formation at 340 nm). It is filed as biochemical. As to conditions: IMPDH human type II, 15 to 50 nM enzyme, 37° C., tight-binding fit (Henderson); read-out: Ki. How it is done:
We have measured the inhibition constants of each compound against IMPDH using an adaptation of the method first reported by […]. Moyed, and […]. Biol. Chem., 226, p. 339 (1957)]. We measured the inhibition constants of the compounds listed in Table III utilizing the following protocol: IMP dehydrogenase activity was assayed following an adaptation of the method first reported by […]. Moyed, H. S. and […]. Biol. Chem. 226, 339]. Enzyme activity was measured spectrophotometrically, by monitoring the increase in absorbance at 340 nm due to the formation of NADH (ε340 is 6220 M^-1 cm^-1). The reaction mixture contained 0.1 M Tris pH 8.0, 0.1 M KCl, 3 mM EDTA, 2 mM DTT, […] and enzyme (IMPDH human type II) at a concentration of 15 to 50 nM. This solution is incubated at 37° C. for 10 minutes. The reaction is started by adding NAD to a final concentration of 0.1 M and the initial rate is measured by following the linear increase in absorbance at 340 nm for 10 minutes. For reading in a standard spectrophotometer (path length 1 cm) the final volume in the cuvette is 1.0 ml. The assay has also been adapted to a 96 well microtiter plate format; in this case the concentrations of all the reagents remain the same and the final volume is decreased to 200 μl. For the analysis of inhibitors, the compound in question is dissolved in DMSO to a final concentration of 20 mM and added to the initial assay mixture for preincubation with the enzyme at a final volume of 2-5% (v/v). The reaction is started by the addition of NAD, and the initial rates measured as above. […] The designation “ND” is used where a given compound was not tested.
The term Ki denotes the dissociation constant of the complex between target and ligand, obtained from inhibition or displacement. Take `COc1ccccc1NC(=O)Nc1ccc(-c2cnco2)cc1` [Compound 12]: the Ki is 1000 to 10000 nM.

For the compound `O=C(Nc1cccc([N+](=O)[O-])c1)Nc1ccc(-c2cnco2)c(Cl)c1` [Compound 78], the Ki lay in the range of 51 to 1000 nM.

As to `O=C(Nc1ccc(-c2cnco2)cc1)Nc1cccc(-c2cnco2)c1` [Compound 67], the Ki fell in the range of 1000 to 10000 nM.

As to `O=C(Nc1ccc(-c2cnco2)cc1)Nc1cccc(Br)c1` [Compound 7], the Ki lay within 51 to 1000 nM.

Regarding `COCCCOC(=O)NCc1cccc(NC(=O)Nc2ccc(-c3cnco3)c(OC)c2)c1` [Compound 162], the inhibition constant (Ki) is 0.01 to 50 nM.

With `COc1cc(NC(=O)Nc2cccc(CNC(=O)OCc3ccccc3)c2)ccc1-c1cnco1` [Compound 138], the Ki lay in the range of 0.01 to 50 nM.

For `COc1cc(NC(=O)Nc2cccc(CNC(=O)OCCCS(C)(=O)=O)c2)ccc1-c1cnco1` [Compound 157], the inhibition constant Ki lay within 51 to 1000 nM.

On to `COc1cc(NC(=O)Nc2cccc(CNC(=O)OC3CCOC3)c2)ccc1-c1cnco1` (stereo not drawn) [Compound 136], for which the Ki was in the range of 0.01 to 50 nM.

Regarding `COc1cc(NC(=O)Nc2cccc(NC(=O)C(F)F)c2)ccc1-c1cnco1` [Compound 100], the Ki was 51 to 1000 nM.

With `COc1cc(NC(=O)Nc2cccc(CNC(=O)OCCCNC(=O)OC(C)(C)C)c2)ccc1-c1cnco1` [Compound 139], the Ki is 51 to 1000 nM.

For the compound `O=C(Nc1cccc([N+](=O)[O-])c1)Nc1ccc(-c2cnco2)c(Br)c1` [Compound 64], the Ki lay in the range of 51 to 1000 nM.

As to `COc1cc(NC(=O)Nc2cccc(NC(=O)OCc3cccnc3)c2)ccc1-c1cnco1` [Compound 98], the Ki was 51 to 1000 nM.

Values taken from patent US7329681B2, “Inhibitors of IMPDH enzyme” (Vertex Pharmaceuticals Incorporated, priority 1996, dated 2008).
